Among the data in ChEMBL document CHEMBL1156116, “Histone deacetylase and microtubules as targets for the synthesis of releasable conjugate compounds” (Bioorg Med Chem Lett, 2009) are inhibition, IC50 and Activity values, retold here.

A word on the IC50: it is the concentration needed to halve the response being measured.

Experiment [1] deals with Histone deacetylase 1 (Homo sapiens) (UniProt Q13547). Kind of experiment: Inhibition of human HDAC1 in human IGROV1 cells assessed as histone H4 acetylation at 0.1 uM after 4 hrs by Western blot analysis. Conditions: IGROV-1. It is filed as cell-based. In general terms: Immunoblotting shows a protein as a band on a membrane.
Experiment [2] addresses T1, Protein deacetylase HDAC6 (Homo sapiens) (UniProt Q9UBN7).
T1 sequence (whole entry): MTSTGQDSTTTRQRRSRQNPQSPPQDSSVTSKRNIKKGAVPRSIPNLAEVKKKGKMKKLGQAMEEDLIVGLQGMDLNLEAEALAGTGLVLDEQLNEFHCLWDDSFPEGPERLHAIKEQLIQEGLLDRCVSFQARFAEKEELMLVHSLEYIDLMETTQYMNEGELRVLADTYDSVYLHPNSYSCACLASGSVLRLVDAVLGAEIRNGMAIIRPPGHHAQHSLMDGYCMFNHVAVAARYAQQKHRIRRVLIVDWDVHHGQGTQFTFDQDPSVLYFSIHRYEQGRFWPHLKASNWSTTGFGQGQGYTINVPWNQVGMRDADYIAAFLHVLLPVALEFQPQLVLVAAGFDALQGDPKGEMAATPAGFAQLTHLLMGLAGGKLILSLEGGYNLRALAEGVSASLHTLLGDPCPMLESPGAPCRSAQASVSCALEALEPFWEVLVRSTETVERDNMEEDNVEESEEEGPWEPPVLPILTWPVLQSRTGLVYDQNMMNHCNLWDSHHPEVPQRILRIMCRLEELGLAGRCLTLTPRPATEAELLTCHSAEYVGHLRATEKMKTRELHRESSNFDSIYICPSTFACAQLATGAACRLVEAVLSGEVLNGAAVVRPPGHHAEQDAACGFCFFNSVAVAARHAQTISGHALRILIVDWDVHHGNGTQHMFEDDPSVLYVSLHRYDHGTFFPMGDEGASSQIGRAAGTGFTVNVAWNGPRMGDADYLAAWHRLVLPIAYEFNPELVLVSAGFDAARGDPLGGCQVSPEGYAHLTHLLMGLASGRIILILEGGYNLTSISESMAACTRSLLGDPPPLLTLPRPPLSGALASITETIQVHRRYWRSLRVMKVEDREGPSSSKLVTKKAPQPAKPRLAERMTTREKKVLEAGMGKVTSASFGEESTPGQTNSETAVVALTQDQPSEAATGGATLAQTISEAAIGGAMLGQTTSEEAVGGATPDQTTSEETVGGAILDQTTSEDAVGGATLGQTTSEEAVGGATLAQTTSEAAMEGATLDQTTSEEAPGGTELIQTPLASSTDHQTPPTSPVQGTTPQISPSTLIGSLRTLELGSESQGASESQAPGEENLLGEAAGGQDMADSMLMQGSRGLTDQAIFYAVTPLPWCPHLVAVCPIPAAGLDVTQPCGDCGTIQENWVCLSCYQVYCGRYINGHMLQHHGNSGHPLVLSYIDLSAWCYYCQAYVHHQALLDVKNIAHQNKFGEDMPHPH
Kind of experiment: Inhibition of human HDAC6 in human IGROV1 cells assessed as alpha-tubulin acetylation at 0.1 uM after 48 hrs by Western blot analysis. It is filed as cell-based. Conditions: IGROV-1.

The subject of experiment [3] is IGROV-1. Kind of experiment: Antiproliferative activity against human IGROV1 cells assessed as growth inhibition after 72 hrs by Coulter counting analysis. It is filed as functional, cell-based. Conditions: IGROV-1, 72 h.
For experiment [4], the target named is T1, Protein deacetylase HDAC6 (Homo sapiens). Put plainly: Inhibition of human HDAC6 in human IGROV1 cells assessed as alpha-tubulin acetylation after 4 hrs by Western blot analysis. It is filed as cell-based. Conditions: IGROV-1.
The target of experiment [5] is Histone deacetylase 1 (Homo sapiens) (UniProt Q13547). Put plainly: Inhibition of human HDAC1 in human IGROV1 cells assessed as histone H4 acetylation after 4 hrs by Western blot analysis. It is filed as cell-based. As to conditions: IGROV-1.
In experiment [6] the test system is IGROV-1. Put plainly: Induction of apoptosis in human IGROV1 cells at IC80 concentration by TUNEL assay. It is filed as functional.
The target of experiment [7] is T1, Protein deacetylase HDAC6 (Homo sapiens). Kind of experiment: Inhibition of human HDAC6 in human IGROV1 cells assessed as alpha-tubulin acetylation at 0.33 to 0.1 uM after 48 hrs by Western blot analysis. In kind it is cell-based. As to conditions: IGROV-1.

The structures appear in SMILES notation. Calls of active or inactive are those of the source. The rule behind the calls is not given here.

Chain of Histone deacetylase 1 (Homo sapiens) (Q13547 whole entry): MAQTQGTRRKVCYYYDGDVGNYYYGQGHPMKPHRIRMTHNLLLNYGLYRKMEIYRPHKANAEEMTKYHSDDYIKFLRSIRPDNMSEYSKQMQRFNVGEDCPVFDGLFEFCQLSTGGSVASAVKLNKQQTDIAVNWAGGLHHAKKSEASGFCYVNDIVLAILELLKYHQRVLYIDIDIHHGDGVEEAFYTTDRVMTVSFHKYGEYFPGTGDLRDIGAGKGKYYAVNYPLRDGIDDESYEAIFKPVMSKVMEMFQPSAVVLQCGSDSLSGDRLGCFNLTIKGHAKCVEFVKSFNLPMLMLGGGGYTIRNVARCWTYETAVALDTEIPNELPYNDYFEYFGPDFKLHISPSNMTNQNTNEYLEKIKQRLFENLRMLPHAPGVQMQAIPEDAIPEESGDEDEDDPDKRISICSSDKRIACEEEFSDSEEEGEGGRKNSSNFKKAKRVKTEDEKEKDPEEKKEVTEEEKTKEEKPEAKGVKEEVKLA

On to `COc1cc2c(c(OC)c1OC)-c1ccc(SC)c(=O)cc1[C@@H](NC(=O)CCCSSCCCC(=O)N[C@H]1CCc3cc(OC)c(OC)c(OC)c3-c3ccc(SC)c(=O)cc31)CC2`, for which the inhibition result in experiment [1] and in experiment [2] was “Active” each time. Moreover, in the experiment with IGROV-1 [3], the 50% inhibitory concentration (IC50) turned out to be 50 nM.

Regarding `COc1cc2c(c(OC)c1OC)-c1ccc(SC)c(=O)cc1[C@@H](NC(=O)CCCSSCCCC(=O)O)CC2`, the half-maximal inhibitory concentration (IC50) in the experiment on IGROV-1 [3] amounted to 19 nM.

Regarding `CC(C)(C)OC(=O)N(Cc1ccccc1)Cc1ccc(/C=C/C(=O)NOC2CCCCO2)cc1` (configuration not stated), in the experiment on IGROV-1 [3], the IC50 was determined as 41000 nM.

For `CC(C)(C)OC(=O)N(Cc1ccccc1)Cc1ccc(/C=C/C(=O)NO)cc1`, the IC50 in the experiment on IGROV-1 [3] was found to be 19100 nM.

`O=C(/C=C/c1ccc(CN(CCO)Cc2ccccc2)cc1)NO`: the inhibition result in experiment [4] and in experiment [5] was “Dose-dependent effect” in each case. Moreover, the IC50 in the experiment with IGROV-1 [3] worked out at 18 nM.

Compound `COc1cc2c(c(OC)c1OC)-c1ccc(SC)c(=O)cc1[C@@H](NC(=O)CCCSSCCCC(=O)OCCN(Cc1ccccc1)Cc1ccc(/C=C/C(=O)NO)cc1)CC2` returned an Activity in the experiment with IGROV-1 [6] of 45%. Moreover, the inhibition result in experiment [7] is “Active”. Besides, the IC50 with IGROV-1 [3] came out at 78 nM.

`CC(=O)O[C@H]1C(=O)[C@@]2(C)[C@H]([C@H](OC(=O)c3ccccc3)[C@]3(O)C[C@H](OC(=O)[C@H](O)[C@@H](NC(=O)c4ccccc4)c4ccccc4)C(C)=C1C3(C)C)[C@]1(OC(C)=O)CO[C@@H]1C[C@@H]2O` [PACLITAXEL]: the IC50 in the experiment on IGROV-1 [3] turned out to be 60 nM.

In the case of `C/C=C(\C)C(=O)N[C@@H](c1ccccc1)[C@@H](O)C(=O)O[C@H]1C[C@@]2(O)[C@@H](OC(=O)c3ccccc3)[C@@H]3[C@]4(OC(C)=O)CO[C@@H]4C[C@H](O)[C@@]3(C)C(=O)[C@H](OC(C)=O)C(=C1C)C2(C)C` [CEPHALOMANNINE], the IC50 with IGROV-1 [3] was determined as 300 nM.

For the compound `O=C(/C=C/c1ccc(CNCc2ccccc2)cc1)NO`, the inhibition result in experiment [4] and in experiment [5] was “Dose-dependent effect” each time. Moreover, in the experiment with IGROV-1 [3], the IC50 amounted to 480 nM.
